We go through 23 molecules from patent US11548875B2, “Inhibitor compounds for male contraception” (University of Washington, priority 2018, dated 2023).

Structures can show the parent of a compound that is named as a salt. Where two headings read alike, the source gives them in different places.

The target in one test is T1, ALDH1A1 (Homo sapiens, UniProt P00352).
T1 sequence (P00352 1-501): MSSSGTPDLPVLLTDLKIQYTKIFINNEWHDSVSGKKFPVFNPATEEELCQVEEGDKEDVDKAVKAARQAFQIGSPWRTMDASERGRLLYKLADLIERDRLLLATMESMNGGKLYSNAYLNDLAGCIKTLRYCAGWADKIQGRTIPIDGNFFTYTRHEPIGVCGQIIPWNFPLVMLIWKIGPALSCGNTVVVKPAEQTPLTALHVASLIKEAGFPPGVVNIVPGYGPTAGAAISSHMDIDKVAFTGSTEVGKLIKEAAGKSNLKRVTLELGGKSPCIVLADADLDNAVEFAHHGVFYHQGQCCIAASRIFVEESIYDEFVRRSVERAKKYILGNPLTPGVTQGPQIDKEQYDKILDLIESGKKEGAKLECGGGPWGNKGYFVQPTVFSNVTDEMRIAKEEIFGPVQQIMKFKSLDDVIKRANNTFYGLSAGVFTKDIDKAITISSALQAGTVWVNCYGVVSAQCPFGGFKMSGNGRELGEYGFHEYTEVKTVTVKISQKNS
The test is described as follows: Cell-based enzyme assay, retinoic acid production in ALDH1A1/H1299 cells. The essentials:
(§1)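 ALDH1A1- or ALDH1A2-stably transfected H1299 cells grown to confluence, then treated 20 h in serum-free RPMI-1640 with 2 μM all-trans-retinal plus varying inhibitor concentrations at 37 °C. Retinoic acid in cells and media quantified; inhibition from RA levels with vs without inhibitor.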

Test [1] deals with T2, ALDH1A2 (Homo sapiens, UniProt O94788).
T2 sequence (O94788 1-518): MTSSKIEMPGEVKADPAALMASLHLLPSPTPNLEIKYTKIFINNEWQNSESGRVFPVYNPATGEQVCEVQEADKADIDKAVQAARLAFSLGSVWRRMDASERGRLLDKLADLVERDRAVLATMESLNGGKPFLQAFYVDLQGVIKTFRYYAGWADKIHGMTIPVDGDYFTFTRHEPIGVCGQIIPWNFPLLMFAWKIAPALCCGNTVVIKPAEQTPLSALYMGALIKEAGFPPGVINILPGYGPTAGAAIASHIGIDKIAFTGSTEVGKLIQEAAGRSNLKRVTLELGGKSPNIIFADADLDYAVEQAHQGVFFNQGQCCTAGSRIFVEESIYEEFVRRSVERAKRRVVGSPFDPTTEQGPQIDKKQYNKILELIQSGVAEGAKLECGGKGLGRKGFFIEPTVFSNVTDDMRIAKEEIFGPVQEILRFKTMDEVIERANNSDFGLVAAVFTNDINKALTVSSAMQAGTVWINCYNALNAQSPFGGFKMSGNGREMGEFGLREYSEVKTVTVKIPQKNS
The test is described as follows: Cell-based enzyme assay, retinoic acid production in ALDH1A2/H1299 cells. The essentials:
as §1

Test [2] has as its target T2, ALDH1A2. The test is described as follows: Inhibitor screening using purified enzymes: ALDH1A2 activity, retinoic acid production by HPLC (5 uM initial screen, then IC50). Type of test: biochemical. Also on record: histidine-tag (C); made in house; host or cells: bacterial expression (pET28 vector, IPTG induction). To be noted: purified enzyme. The essentials:
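Purified His-tagged human enzymes in 10 mM HEPES pH 8.0, 150 mM KCl, 2 mM EDTA with 2 mM NAD, all-trans-retinal substrate; retinoic acid quantified by HPLC. ALDH1A2 initial screen: 1 μg enzyme, 5 μM retinal, 5 μM inhibitor, 15 min, 37° C; IC50 runs: 0.5 μg enzyme, 0.5 μg retinal, 5 min, 37° C.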

The term EC50 denotes the concentration needed to bring the measured effect to its halfway point. Read a high EC50 as weaker potency. Usually IC50 stands for the point on the concentration scale where inhibition reaches its midpoint. Read a low IC50 as inhibition by little substance. Consider “3-(4-Acryloylphenyl)-1-phenyl-1H-pyrazole-4-carbaldehyde [Compound 309]”, for which the EC50 on ALDH1A1 (cell-based) amounted to 0.73 µM; at ALDH1A2 [1] (cell-based) it was 0.87 µM. Besides, it took 0.005 µM to reach half-maximal inhibition against ALDH1A2 [2] (IC50).
For “3-{4-[(Chloroacetyl)amino]phenyl}-N-(3-fluorophenyl)-1-phenyl-1H-pyrazole-4-carboxamide [Compound 294]” the same measures were under 0.005 µM, under 0.005 µM and 0.025 µM.
Turning to `O=Cc1cn(-c2ccccc2)nc1-c1ccc(O)cc1` [Cmpd 34], the concentration for a half-maximal effect (EC50) on ALDH1A1 (cell-based) stood at 0.469 µM; at ALDH1A2 [1] (cell-based), 0.798 µM. For the same molecule, it took 1.73 µM to reach half-maximal inhibition at ALDH1A2 [2] (IC50).
Take `CS(=O)(=O)c1ccc(-c2nn(-c3ccccc3)cc2C(=O)Nc2cccc(F)c2)cc1` [Compound 178, 3-(4-(Methylsulfonyl)phenyl)-N-(3-fluorophenyl)-1-phenyl-1H-pyrazole-4-carboxamide]: the figures for the EC50 at ALDH1A1 (cell-based) and at ALDH1A2 [1] (cell-based) were 5.5 µM and 0.065 µM, respectively. In addition, the IC50 on ALDH1A2 [2] worked out at 0.192 µM.
For `CS(=O)(=O)c1ccc(-c2nn(-c3ccccc3)cc2C(=O)Nc2cccc(O)c2)cc1` [Compound 211, 3-(4-(Methylsulfonyl)phenyl)-N-(3-hydroxyphenyl)-1-phenyl-1H-pyrazole-4-carboxamide], the EC50 on ALDH1A1 (cell-based) was found to be 2 µM; on ALDH1A2 [1] (cell-based) it was 0.12 µM. Also, the IC50 on ALDH1A2 [2] came to 0.081 µM.
Taken in the same sequence, the figures for `CS(=O)(=O)c1ccc(-c2nn(-c3ccccc3)cc2C(=O)Nc2cccc(Cl)c2)cc1` [Compound 219, 3-(4-(Methylsulfonyl)phenyl)-N-(3-chlorophenyl)-1-phenyl-1H-pyrazole-4-carboxamide] were over 20 µM, 0.11 µM and 0.606 µM.
As to `CCS(=O)(=O)c1ccc(-c2nn(-c3ccccc3)cc2C(=O)Nc2cccc(F)c2)cc1` [Compound 223, 3-(4-(Ethylsulfonyl)phenyl)-N-(3-fluorophenyl)-1-phenyl-1H-pyrazole-4-carboxamide], the EC50 stood at 1.3 µM at ALDH1A1 (cell-based) and 0.088 µM at ALDH1A2 [1] (cell-based). Moreover, the IC50 at ALDH1A2 [2] was determined as 0.208 µM.
Take `CS(=O)(=O)c1ccc(-c2nn(-c3ccccc3)cc2C(=O)Nc2cccc(F)c2O)cc1` [Compound 231, N-(3-Fluoro-2-hydroxyphenyl)-3-[4-(methylsulfonyl)phenyl]-1-phenyl-1H-pyrazole-4-carboxamide]: the EC50 at ALDH1A1 (cell-based) is over 20 µM; at ALDH1A2 [1] (cell-based) it was 0.069 µM. The molecule further came in with an IC50 on ALDH1A2 [2] of 0.323 µM.
Regarding `CS(=O)(=O)c1ccc(-c2nn(-c3ccc(Cl)cc3)cc2C(=O)Nc2ccccc2O)cc1` [Compound 233, N-(2-Hydroxyphenyl)-3-[4-(methylsulfonyl)phenyl]-1-(4-chloropheny)-1H-pyrazole-4-carboxamide], the figures for the EC50 at ALDH1A1 (cell-based) and on ALDH1A2 [1] (cell-based) were 13.2 µM and 0.055 µM, respectively. Besides, on ALDH1A2 [2], the IC50 worked out at 0.795 µM.
For `CS(=O)(=O)c1ccc(-c2nn(-c3ccc(F)cc3)cc2C(=O)Nc2cccc(F)c2)cc1` [Compound 241, N-(3-Fluorophenyl)-3-[4-(methylsulfonyl)phenyl]-1-(4-fluorophenyl)-1H-pyrazole-4-carboxamide] the same measures were 10.9 µM, 0.056 µM and 0.092 µM.
Turning to `CS(=O)(=O)c1ccc(-c2nn(-c3ccc(OC(F)(F)F)cc3)cc2C(=O)Nc2cccc(F)c2)cc1` [Compound 258, N-(3-Fluorophenyl)-1-(4-trifluoromethoxypheny)-3-[4-(methylsulfonyl)phenyl]-1H-pyrazole-4-carboxamide], the EC50 at ALDH1A1 (cell-based) is 26.4 µM; on ALDH1A2 [1] (cell-based), 0.051 µM. In addition, the IC50 against ALDH1A2 [2] was 0.112 µM.
As to `CS(=O)(=O)c1ccc(-c2nn(-c3ccc(C#N)cc3)cc2C(=O)Nc2cccc(C(F)(F)F)c2)cc1` [Compound 262, 1-(4-Cyanophenyl)-N-(3-trifluoromethylphenyl)-3-[4-(methylsulfonyl)phenyl]-1H-pyrazole-4-carboxamide], the EC50 on ALDH1A1 (cell-based) was over 20 µM; at ALDH1A2 [1] (cell-based), 0.016 µM. At ALDH1A2 [2], this molecule displayed an IC50 of 0.352 µM.
`CS(=O)(=O)c1ccc(-c2nn(-c3cccc(F)c3)cc2C(=O)Nc2cccc(C(F)(F)F)c2)cc1` [Compound 266, 1-(3-Fluorophenyl)-N-(3-trifluoromethylphenyl)-3-[4-(methylsulfonyl)phenyl]-1H-pyrazole-4-carboxamide]: the EC50 is over 20 µM on ALDH1A1 (cell-based) and 0.354 µM at ALDH1A2 [1] (cell-based). The molecule also returned an IC50 on ALDH1A2 [2] of 0.029 µM.
Regarding `CS(=O)(=O)c1ccc(-c2nn(-c3cccc(C#N)c3)cc2C(=O)Nc2cccc(F)c2)cc1` [Compound 268, 1-(3-Cyanophenyl)-N-(3-fluorophenyl)-3-[4-(methylsulfonyl)phenyl]-1H-pyrazole-4-carboxamide], the EC50 on ALDH1A1 (cell-based) is 2.43 µM; at ALDH1A2 [1] (cell-based), 0.026 µM. For the same molecule, 0.84 µM corresponded to half-maximal inhibition against ALDH1A2 [2] (IC50).
As for `CS(=O)(=O)c1ccc(-c2nn(-c3cccc(C#N)c3)cc2C(=O)Nc2ccc(F)c(F)c2)cc1` [Compound 269, 1-(3-Cyanophenyl)-N-(3,4-difluorophenyl)-3-[4-(methylsulfonyl)phenyl]-1H-pyrazole-4-carboxamide], the results for the EC50 at ALDH1A1 (cell-based) and at ALDH1A2 [1] (cell-based) were 3.56 µM and 0.045 µM, respectively. At ALDH1A2 [2], the IC50 came out at 0.238 µM.
`N#Cc1ccc(-n2cc(C(=O)Nc3cccc(F)c3)c(-c3ccc(NC(=O)C(Cl)Cl)cc3)n2)cc1` [Compound 316a, 3-(4-Dichloroacetamidophenyll)-N-(3-fluorophenyl)-1-(4-cyanophenyl)-1H-pyrazole-4-carboxamide]: the EC50 was 0.18 µM on ALDH1A1 (cell-based) and 0.013 µM on ALDH1A2 [1] (cell-based). Also, on ALDH1A2 [2], half-maximal inhibition (IC50) required 0.037 µM.
Consider `CCc1ccc(C(=O)N2CCN(c3ccc([N+](=O)[O-])c(N4CCCC4)c3)CC2)s1` [Compound 323, {4-[4-Nitro-3-(pyrrolidin-1-yl)phenyl]piperazin-1-yl}(5-ethylthiophen-2-yl)methanone], for which the EC50 on ALDH1A1 was 0.195 µM; at ALDH1A2 [1], 0.457 µM. This molecule also yielded an IC50 at ALDH1A2 [2] of 0.103 µM.
Turning to `CCOc1ccsc1C(=O)N1CCN(c2ccc([N+](=O)[O-])c(N3CCCC3)c2)CC1` [Compound 326, {4-[4-Nitro-3-(pyrrolidin-1-yl)phenyl]piperazin-1-yl}(3-ethoxythiophen-2-yl)methanone], the results for the EC50 on ALDH1A1 and at ALDH1A2 [1] were 0.44 µM and 0.11 µM, respectively. At ALDH1A2 [2], the IC50 is 0.058 µM.
`Cc1cc(C(=O)N2CCN(c3ccc([N+](=O)[O-])c(N4CCCC4)c3)CC2)sc1C` [Compound 327, {4-[4-Nitro-3-(pyrrolidin-1-yl)phenyl]piperazin-1-yl}(4,5-dimethylthiophen-2-yl)methanone]: the EC50 was over 0.5 µM at ALDH1A1 and 0.862 µM at ALDH1A2 [1]. This molecule also registered an IC50 at ALDH1A2 [2] of 0.313 µM.
Taken in the same sequence, the figures for `COc1ccsc1C(=O)N1CCN(c2ccc([N+](=O)[O-])c(N3CCCC3)c2)CC1` [Compound 329, {4-[4-Nitro-3-(pyrrolidin-1-yl)phenyl]piperazin-1-yl}(3-methoxythiophen-2-yl)methanone] were under 0.5 µM, under 0.5 µM and 0.079 µM.
Take `Nc1ccsc1C(=O)N1CCN(c2ccc([N+](=O)[O-])c(N3CCCC3)c2)CC1` [Compound 331, {4-[4-Nitro-3-(pyrrolidin-1-yl)phenyl]piperazin-1-yl}(3-aminothiophen-2-yl)methanone hydrochloride]: the EC50 on ALDH1A1 was determined as 0.088 µM; on ALDH1A2 [1], 0.121 µM. Further, on ALDH1A2 [2], half-maximal inhibition (IC50) required 0.062 µM.
Taken in the same sequence, the figures for `CC(=O)Nc1ccsc1C(=O)N1CCN(c2ccc([N+](=O)[O-])c(N3CCCC3)c2)CC1` [Compound 332] were 0.413 µM, 0.437 µM and 0.388 µM.
For the molecule `O=C(c1ccc(F)s1)N1CCN(c2ccc([N+](=O)[O-])c(N3CCCC3)c2)CC1` [Compound 334, {4-[4-Nitro-3-(pyrrolidin-1-yl)phenyl]piperazin-1-yl}(5-fluorothiophen-2-yl)methanone], the results for the EC50 at ALDH1A1 and on ALDH1A2 [1] were 0.26 µM and 0.377 µM, respectively. On ALDH1A2 [2], this molecule registered an IC50 of 1.33 µM.
